# Source: patent publication US20080103198A1, “METHODS FOR TREATMENT OF COCHLEAR AND VESTIBULAR DISORDERS” (priority 2006, published 2008)
# “And” between values parts separate entries of the source, which are not always exact repeats. Equal values may be shown once.
# Assays:
# Type in all cases: in vivo, rat
# Li-pilo induced SE [1] = assay: Lithium-pilocarpine model (Example 1): quantification of cell densities
# Experimental: Quantification of cell densities was performed at […] after SE on 8 pilo-DZP, 8 pilo-test10, 7 pilo-test30, 7 pilo-test60, and 6 saline-saline rats. At 14 days after SE, animals were deeply anesthetized with 1.8 g/kg pentobarbital (Dolethal®, Vetoquinol, Lure, France. Brains were then removed and frozen. Serial 20 μm slices were cut in a cryostat, air-dried during several days before thionine staining.
# Quantification of cell densities was performed with a 10×10 boxes 1 cm^2 microscopic grid on coronal sections according to the stereotaxic coordinates of the rat brain atlas (Paxinos and Watson, 1986, The Rat brain in Stereotaxic Coordinates, 2nd ed. Academic Press, San Diego). Cell counts were performed twice in a blind manner and were the average of at least 3 values from 2 adjacent sections in each individual animal. Counts involved only cells larger than 10 μm, smaller ones being considered as glial cells.
# For the comparison of the characteristics of SE in pilo-saline and pilo-test compound animals, a non-paired Student's t-test was used. The comparison between the number of rats seizing in both groups was performed by means of a Chi square test. For neuronal damage, statistical analysis between groups was performed using ANOVA followed by a Fisher's test for multiple comparisons using the Statview software (Fisher R A, 1946a, Statistical Methods for Research Workers (10th edition) Oliver & Boyd, Edinburgh; Fisher R A, 1946b, The Design of Experiments (4th edition) Oliver & Boyd, Edinburgh) Behavioral and EEG characteristics of lithium-pitocarpine status epilepticus
# Li-pilo induced SE [2] = assay: Lithium-pilocarpine model (Example 1): Timm staining, mossy fiber sprouting
# Experimental: At 2 months after the onset of spontaneous recurrent seizures, mossy fiber sprouting was examined on rats in the chronic period exposed to the test compound or DZP and in 3 saline-saline rats. Animals were deeply anaesthetized and perfused transcardially with saline followed by 100 ml of 1.15% (w/v) Na2S in 0.1 M phosphate buffer, and 100 ml of 4% (v/v) formaldehyde in 0.1 M phosphate buffer. Brains were removed from skull, post-fixed in 4% formaldehyde during 3-5 h and 40 μm sections were cut on a sliding vibratome and mounted on gelatin-coated slides.
# The following day, sections were developed in the dark in a 26° C. solution of 50% (w/v) arabic gum (160 ml), sodium citrate buffer (30 ml), 5.7% (w/v) hydroquinone (80 ml) and 10% (w/v) silver nitrate (2.5 ml) during 40-45 min. The sections were then rinsed with tap water at 40° C. during at least 45 min, rinsed rapidly with distilled water and allowed to dry. They were dehydrated in ethanol and coverslipped.
# Mossy fiber sprouting was evaluated according to criteria previously described in dorsal hippocampus (Cavazos et al., 1991, J Neurosci 11:2795-2803), which are follows: 0—no granules between the tips and crest of the DG; 1—sparse granules in the supragranular region in a patchy distribution between the tips and crest of DG; 2—more numerous granules in a continuous distribution between the tips and crest of DG; 3—prominent granules in a continuous pattern between tips and crest, with occasional patches of confluent granules between tips and crest; 4—prominent granules that form a confluent dense laminar band between tips and crest and 5—confluent dense laminar band of granules that extends into the inner molecular layer.
# Li-Pilo SE = assay: Lithium-pilocarpine model (Example 2): mortality and latency to SRS; design: degree of mortality: concentration or dose not given beside the values; settings: for mortality over the first 48 h after SE: early cell counting group; for degree of mortality: latency to SRS / late cell counting group
# Experimental: The model induced in rats by pilocarpine associated with lithium (Li-Pilo) reproduces most of the clinical and neurophysiological features of human temporal lobe epilepsy (See, Turski et al., 1989; Synapse 3:154-171; Cavalheiro, 1995, Ital J Neurol Sci 16:33-37). In adult rats, the systemic administration of pilocarpine leads to SE that may last for up to 24 h. The lethality rate reaches 30-50% during the first days. In the surviving animals, neuronal damage predominates within the hippocampal formation, the piriform and entorhinal cortices, thalamus, amygdaloid complex, neocortex and substantia nigra.
# In the present study, we tested the effects of different doses of various doses of test compound, i.e. 30, 60, 90 and 120 mg/kg (referred to herein as RWJ30, RWJ60, RWJ90 and RWJ120) using the same design as in the previous study. The treatment was started one hour after the onset of status epilepticus (SE) and the animals were treated with a second injection of the same dose of the drug. This early treatment of SE was followed by a 6 day test compound treatment. This report concerns the effects of the four different doses of test compound on neuronal damage in hippocampus and parahippocampal cortices. The study on the latency to the onset of epilepsy is still incomplete but we will show the data we have got at present which have been performed on a limited group of animals. The latency to spontaneous epileptic seizures was correlated on the same rats to the number of neurons remaining in the areas involved in the circuit of seizures.
# Adult male Sprague-Dawley rats provided by Janvier Breeding Center (Le Genest-St-Isle, France) were housed under controlled, uncrowded standard conditions at 20-22° C. (light/dark cycle, 7.00 a.m.-7.00 p.m. lights on), with food and water available ad libitum. All animal experimentation was performed in accordance with the rules of the European Communities Council Directive of Nov. 24, 1986 (86/609/EEC), and the French Department of Agriculture (License No 67-97).
# All rats received lithium chloride (3 meq/kg, i.p., Sigma, St Louis, Mo., U.S.A.) and about 20 h later, all animals received also methylscopolamine bromide (1 mg/kg, s.c., Sigma) that was administered to limit the peripheral effects of the convulsant. SE was induced by injecting pilocarpine hydrochloride (25 mg/kg, s.c., Sigma) 30 min after methylscopolamine. The effects of increasing doses of test compound (RWJ) were studied in 5 groups of rats. The animals received either 2.5 mg/kg diazepam, i.m., (DZP), or 30, 60, 90 or 120 mg/kg of test compound (RWJ30, RWJ60, RWJ90, RWJ120), i.p., at 1 h after the onset of SE. The control group received vehicle instead of pilocarpine and test compound. The rats surviving SE were then injected about 10 h after the first test compound injection with a second i.p. injection of 1.25 mg/kg DZP for the DZP group or of the same dose of test compound as in the morning and were maintained under a twice daily test compound treatment for 6 additional days (s.c.) while DZP rats received a vehicle injection. The effects of the four doses of test compound on the latency to occurrence of spontaneous recurrent seizures (SRS) were investigated by daily video recording of the animals for 10 h per day.
# [3] = DZP, compared to saline-saline rats
compound,measurement,setting,value
NC(=O)OC[C@@H](O)c1ccccc1Cl [test compound],"more damage compared with pilo-DZP rats, dorsal entorhinal cortex layers III-IV",Li-pilo induced SE [1]; 10 mg/kg,28%
same,"more damage compared with pilo-DZP rats, ventral entorhinal cortex layers III-IV",Li-pilo induced SE [1]; 10 mg/kg,35%
same,"neuroprotection compared to pilo-DZP rats, ventral entorhinal cortex layers III-IV",Li-pilo induced SE [1]; 60 mg/kg,31%
same,neuroprotection in CA3b,Li-pilo induced SE [1]; 60 mg/kg,significantly neuroprotective
same,"reduction of neuronal damage recorded in pilo-DZP rats, piriform cortex layer II",Li-pilo induced SE [1]; 60 mg/kg,41%
same,"reduction of neuronal damage recorded in pilo-DZP rats, piriform cortex layers III-IV",Li-pilo induced SE [1]; 60 mg/kg,44%
same,"reduction of neuronal damage, lateral thalamic nucleus",Li-pilo induced SE [1]; 60 mg/kg,65%
same,"reduction of neuronal damage, mediodorsal thalamic nucleus",Li-pilo induced SE [1]; 60 mg/kg,42%
same,neuroprotection in CA3a area,"Li-pilo induced SE [1]; 10, 30, 60 mg/kg",did not afford any protection
same,"cell loss, hilus of dentate gyrus",Li-pilo induced SE [1]; pilo-test compound animals (10-60 mg/kg),69-72%
same,"cell loss, CA1 pyramidal layer",Li-pilo induced SE [1]; test compound 30 mg/kg,35%
same,"cell loss, CA1 pyramidal layer",Li-pilo induced SE [1]; test compound 60 mg/kg,16%
same,"Timm score, upper blade of dentate gyrus (mean)","Li-pilo induced SE [2]; 10 mg/kg, n=7",1.5±0.6
same,"Timm score, upper blade of dentate gyrus (mean)","Li-pilo induced SE [2]; 30 mg/kg, n=10",2.6±1.0
same,Timm score,"Li-pilo induced SE [2]; 60 mg/kg, subgroup with early SRS occurrence, n=6",1.8±0.6
same,Timm score,"Li-pilo induced SE [2]; 60 mg/kg, subgroup with late occurrence or absence of SRS, n=5",1.2±0.6
same,"Timm score, upper blade of dentate gyrus (mean)","Li-pilo induced SE [2]; 60 mg/kg, whole group, n=11",1.5±0.7
same,"latency to spontaneous seizures, individual rats","Li-Pilo SE; 30 mg/kg, two rats",8 days and 9 days
same,"first spontaneous seizure after SE, individual rats","Li-Pilo SE; 60 mg/kg, 3 rats",7 days and 8 days and 38 days
same,"first spontaneous seizure after SE, individual rats","Li-Pilo SE; 90 mg/kg, 3 rats",9 days and 10 days and 51 days
same,"first spontaneous seizure after SE, individual rats","Li-Pilo SE; 120 mg/kg, 2/4 rats with prolonged latency",79 days and 44 days
same,recording time following SE without any seizure,"Li-Pilo SE; 120 mg/kg, the two other rats",> 5 months
same,mortality over the first 48 h after SE,Li-Pilo SE; RWJ30 (30 mg/kg i.p.),43%
same,mortality over the first 48 h after SE,Li-Pilo SE; RWJ60 (60 mg/kg i.p.),0%
same,mortality over the first 48 h after SE,Li-Pilo SE; RWJ90 (90 mg/kg i.p.),0%
same,mortality over the first 48 h after SE,Li-Pilo SE; RWJ120 (120 mg/kg i.p.),47%
same,degree of mortality,Li-Pilo SE; RWJ30,50%
same,degree of mortality,Li-Pilo SE; RWJ60,0%
same,degree of mortality,Li-Pilo SE; RWJ90,0%
same,degree of mortality,Li-Pilo SE; RWJ120,0%
"CN1C(=O)CN=C(c2ccccc2)c2cc(Cl)ccc21 [DZP, diazepam, reference compound]","cell loss, CA3a",Li-pilo induced SE [1]; [3],54%
same,"cell loss, CA3b",Li-pilo induced SE [1]; [3],31%
same,"cell loss, dorsal entorhinal cortex layer II",Li-pilo induced SE [1]; [3],9%
same,"cell loss, dorsal entorhinal cortex layers III-IV",Li-pilo induced SE [1]; [3],15%
same,"cell loss, hilus of dentate gyrus",Li-pilo induced SE [1]; [3],73%
same,"cell loss, hippocampus CA1 pyramidal cell layer",Li-pilo induced SE [1]; [3],70% and 75%
same,"cell loss, lateral thalamic nucleus",Li-pilo induced SE [1]; [3],91%
same,"cell loss, mediodorsal thalamic nucleus",Li-pilo induced SE [1]; [3],56%
same,"cell loss, piriform cortex layer II",Li-pilo induced SE [1]; [3],53%
same,"cell loss, piriform cortex layers III-IV",Li-pilo induced SE [1]; [3],total
same,"cell loss, ventral entorhinal cortex layers III-IV",Li-pilo induced SE [1]; [3],44%
same,"damage, ventral entorhinal cortex layer II",Li-pilo induced SE [1]; [3],totally preserved
same,"Timm score, upper blade of dentate gyrus (mean)","Li-pilo induced SE [2]; DZP, n=9",2.8±0.8
same,latency to spontaneous seizures (mean),"Li-Pilo SE; DZP group, 7 rats",18 ± 8 days
same,mortality over the first 48 h after SE,Li-Pilo SE; DZP 2.5 mg/kg i.m.,47%
same,degree of mortality,Li-Pilo SE; DZP,30%
